Values joined by “and” are separate entries in the source; they are usually repeats but may differ in a detail not shown here. Equal values may be shown once. Toxic doses and inconclusive results are not listed.

Results on 20 compounds are retold here after PubChem BioAssay AID280 (DTP/NCI, 2004).

In the experiment the test system is nude mice, LOX melanoma ip, survival T/C. Kind of experiment: NCI In Vivo Anticancer Drug Screen. Data for tumor model Human Amelanotic Melanoma (LOX) (intraperitoneal) in NU/NU BALB/C (nude) mice. The following applies: endpoint: median survival time, schedule: Q04DX003 (ip), higher = longer survival. As to the method:
The antitumor activity of compounds was measured in mice bearing transplantable tumors. Survival or tumor size were measured and the results are expressed as the measurement made in the treated group (T) divided by the measurement made in the vehicle treated control group (C). The tumor model used in this assay is Human Amelanotic Melanoma (LOX) (intraperitoneal) in NU/NU BALB/C (nude) mice

The mark [1] stands for this setting: dose: 18.75 mg/kg/injection, vehicle: water.
Setting [2] is: dose: 37.5 mg/kg/injection, vehicle: water.
[3] abbreviates: dose: 75.0 mg/kg/injection, vehicle: water.
Where [4] appears, read: dose: 40.0 mg/kg/injection, vehicle: saline.
Where [5] appears, read: dose: 75.0 mg/kg/injection, vehicle: suspension in saline.
The mark [6] stands for this setting: dose: 150.0 mg/kg/injection, vehicle: suspension in saline.
The mark [7] stands for this setting: dose: 300.0 mg/kg/injection, vehicle: suspension in saline.
The mark [8] stands for this setting: dose: 600.0 mg/kg/injection, vehicle: suspension in saline.
[9] abbreviates: dose: 50.0 mg/kg/injection, vehicle: saline with Tween-80.
Setting [10] is: dose: 100.0 mg/kg/injection, vehicle: saline with Tween-80.
[11] abbreviates: dose: 75.0 mg/kg/injection, vehicle: saline with Tween-80.
[12] abbreviates: dose: 300.0 mg/kg/injection, vehicle: saline with Tween-80.
[13] abbreviates: dose: 75.0 mg/kg/injection, vehicle: Klucel (hydroxypropylcellulose) (HPC).
The mark [14] stands for this setting: dose: 150.0 mg/kg/injection, vehicle: Klucel (hydroxypropylcellulose) (HPC).
The mark [15] stands for this setting: dose: 300.0 mg/kg/injection, vehicle: Klucel (hydroxypropylcellulose) (HPC).

In the case of `COc1cccc2c1C(=O)C1=C(C2=O)c2c(O)cc(CO)cc2C(O)C1O` (configuration not stated), the T/C is 98 % of control (dose: 6.25 mg/kg/injection, vehicle: saline + Tween-80 + alcohol); 109 % of control (dose: 12.5 mg/kg/injection, vehicle: saline + Tween-80 + alcohol); 112 % of control (dose: 25.0 mg/kg/injection, vehicle: saline + Tween-80 + alcohol); 109 % of control (dose: 50.0 mg/kg/injection, vehicle: saline + Tween-80 + alcohol).

In the case of `c1ccc2c3c(c4c(c2c1)CN(C1CCCCC1)CO4)OCN(C1CCCCC1)C3`, the T/C under setting [1] was 102 % of control, the T/C under setting [2] was 107 % of control and the T/C under setting [3] was 123 % of control.

In the case of `O=NNc1ccc2cccnc2n1`, the T/C reads like this: (dose: 9.38 mg/kg/injection, vehicle: water) 99 % of control; under setting [1], 120 % of control; under setting [2], 157 % of control; under setting [3], 192 % of control; (dose: 150.0 mg/kg/injection, vehicle: water) 214 % of control.

With `N=C1CCCS1`, the T/C is 114 % of control (dose: 10.0 mg/kg/injection, vehicle: saline); 96 % of control (dose: 20.0 mg/kg/injection, vehicle: saline); 102 % of control under setting [4]; 113 % of control (dose: 80.0 mg/kg/injection, vehicle: saline); 116 % of control (dose: 160.0 mg/kg/injection, vehicle: saline).

On to `CC/C(=C(\c1ccccc1)c1ccc(OCCN(C)C)cc1)c1ccccc1`, for which the T/C by setting is: under setting [5], 109 % of control; under setting [6], 101 % of control; under setting [7], 96 % of control; under setting [8], 95 % of control.

As to `COc1cc2c(c(OC)c1OC)-c1ccc(SC)c(=O)cc1[C@@H](NC(C)=O)CC2`, the T/C is, setting by setting: (dose: 0.25 mg/kg/injection, vehicle: Klucel (hydroxypropylcellulose) (HPC)) 163 % of control; (dose: 0.5 mg/kg/injection, vehicle: Klucel (hydroxypropylcellulose) (HPC)) 172 % of control and 196 % of control; (dose: 0.82 mg/kg/injection, vehicle: Klucel (hydroxypropylcellulose) (HPC)) 173 % of control; (dose: 1.38 mg/kg/injection, vehicle: Klucel (hydroxypropylcellulose) (HPC)) 193 % of control.

In the case of `ClC1(Cl)Cc2ccccc21`, the T/C is, setting by setting: under setting [9], 109 % of control; under setting [10], 120 % of control; (dose: 400.0 mg/kg/injection, vehicle: saline with Tween-80) 120 % of control.

For the compound `COc1cc2c(cc1OC)-c1c3c(cc4c1[C@@H](C2)N(C)CC4)OCO3`, the T/C reads like this: (dose: 32.0 mg/kg/injection, vehicle: distilled water + Tween-80 + alcohol) 115 % of control; (dose: 90.0 mg/kg/injection, vehicle: distilled water + Tween-80 + alcohol) 109 % of control; (dose: 150.0 mg/kg/injection, vehicle: distilled water + Tween-80 + alcohol) 123 % of control.

Consider `S=c1sc2ccccc2n1CN1CCOCC1`, for which the T/C runs as follows: under setting [11], 102 % of control; under setting [12], 90 % of control.

Turning to `CC1=CC=CC(C)(C)C(O)C1=O` (configuration not stated), the T/C (dose: 18.75 mg/kg/injection, vehicle: Klucel (hydroxypropylcellulose) (HPC)) is 98 % of control; the T/C (dose: 37.5 mg/kg/injection, vehicle: Klucel (hydroxypropylcellulose) (HPC)) was 94 % of control; the T/C under setting [13] was 98 % of control; the T/C under setting [14] was 98 % of control; the T/C under setting [15] was 93 % of control.

`COc1c2c(c(O)c3c4c(c(C)cc13)C1OC3(C(OC)OC5CC(C)(O)C(OC6CC(C)(O)C(O)C(C)O6)C(C)O5)OC1C(OC)(O4)C31CO1)C(=O)C(O)CC2OC1CC(C)(O)C(OC(C)=O)C(C)O1` (configuration not stated): the T/C runs as follows: (dose: 12.5 micrograms/kg/injection, vehicle: saline) 261 % of control; (dose: 25.0 micrograms/kg/injection, vehicle: saline) 181 % of control; (dose: 50.0 micrograms/kg/injection, vehicle: saline) 107 % of control.

In the case of `CCOC(=O)NC1CCc2cc(OC)c(OC)c(OC)c2-c2ccc(OC)c(=O)cc21` (configuration not stated), the T/C is 154 % of control (dose: 2.5 mg/kg/injection, vehicle: Klucel (hydroxypropylcellulose) (HPC)); 154 % of control (dose: 5.0 mg/kg/injection, vehicle: Klucel (hydroxypropylcellulose) (HPC)); 178 % of control (dose: 10.0 mg/kg/injection, vehicle: Klucel (hydroxypropylcellulose) (HPC)); 214 % of control (dose: 20.0 mg/kg/injection, vehicle: Klucel (hydroxypropylcellulose) (HPC)).

In the case of `Cc1cc2c(=O)cc(-c3ccccc3)oc2c(C(=O)O)c1C`, the T/C is 95 % of control (dose: 62.5 mg/kg/injection, vehicle: saline with Tween-80); 94 % of control (dose: 125.0 mg/kg/injection, vehicle: saline with Tween-80); 90 % of control (dose: 250.0 mg/kg/injection, vehicle: saline with Tween-80).

With `O=C(CCCCCCC(=O)ON1C(=O)CCC1=O)ON1C(=O)CCC1=O`, the T/C by setting is: under setting [11], 117 % of control; (dose: 150.0 mg/kg/injection, vehicle: saline with Tween-80) 101 % of control; under setting [12], 98 % of control.

In the case of `CC[C@@]1(O)C(=O)OCc2c1cc1n(c2=O)Cc2cc3ccccc3nc2-1`, the T/C (dose: 5.0 mg/kg/injection, vehicle: saline with Tween-80) was 284 % of control.

As to `O=P1(N(CCCl)CCCl)NCCCO1` (configuration not stated), the T/C under setting [4] is 111 % of control; the T/C (dose: 60.0 mg/kg/injection, vehicle: saline) was 115 % of control; the T/C (dose: 90.0 mg/kg/injection, vehicle: saline) was 101 % of control.

For `CC1OC2CC(O)C1(O)C1=C2C(O)=C(C(N)=O)C(=N)C1=O` (configuration not stated), the T/C was 106 % of control (dose: 0.32 mg/kg/injection, vehicle: saline + Tween-80 + alcohol); 99 % of control (dose: 0.63 mg/kg/injection, vehicle: saline + Tween-80 + alcohol); 106 % of control (dose: 1.25 mg/kg/injection, vehicle: saline + Tween-80 + alcohol); 102 % of control (dose: 2.5 mg/kg/injection, vehicle: saline + Tween-80 + alcohol); 102 % of control (dose: 5.0 mg/kg/injection, vehicle: saline + Tween-80 + alcohol).

As for `C/C(=N\NC(=S)N1CC2CCC(CC2)C1)c1nccs1`, the T/C was 101 % of control (dose: 12.5 mg/kg/injection, vehicle: saline with Tween-80); 107 % of control (dose: 25.0 mg/kg/injection, vehicle: saline with Tween-80); 118 % of control under setting [9]; 118 % of control under setting [10].

Consider `N[C@@H](Cc1c[nH]c2ccccc12)C(=O)Nc1nncs1`, for which the T/C runs as follows: under setting [5], 107 % of control; under setting [6], 94 % of control; under setting [7], 94 % of control; under setting [8], 119 % of control.

Turning to `O=C1CC2(C(=O)N1CN1CCOCC1)c1ccccc1-c1ccccc12`, the T/C by setting is: under setting [13], 102 % of control; under setting [14], 98 % of control; under setting [15], 103 % of control; (dose: 600.0 mg/kg/injection, vehicle: Klucel (hydroxypropylcellulose) (HPC)) 120 % of control.
